Read-outs that look alike come from different tables or passages of the source.
Key:
2 normal cell lines = experiment: Antiproliferative activity (SRB), initial cell line screen; format: cell-based; conditions: Homo sapiens; normal cells
Experimental: (§1) Enzymatic kinase activity, [^3H]choline to [^3H]PCho conversion and growth inhibition assays was conducted as previously described. [^3H]choline incorporation into soluble and lipid fractions was determined by a pulse-chase experiment. HCT116 cells were seeded at a density of 3 × 10^5 cell per well into 12-well plates and incubated overnight. Cells were treated with 1 or 10 μM ICL-CCIC-0019 for 1 h and pulsed in presence of inhibitor with 18.5 kBq/mL [^3H]choline chloride in 500 μL for 1 additional h. Cells were briefly rinsed with RPMI and incubated with fresh, non-radioactive medium for 6 h. Metabolites were extracted as described elsewhere, but additionally the radioactivity of the choline-containing and chloroform (lipid-containing) fractions was measured. Uptake of radiolabeled metabolite-tracers was measured as described elsewhere. Antiproliferative activity was measured after 72 h continuous exposure to inhibitors by sulforhodamine B (SRB) assay as described elsewhere. Apoptosis was determined using Caspase 3/7 Glo assay (Promega) according to the manufacturer's instructions.

8 cancer cell lines = experiment: as above; format: cell-based; conditions: Homo sapiens
Experimental: as §1

Breast cancer cell lines = experiment: NCI-60 screen; format: cell-based; conditions: Homo sapiens, read-out: median GI50
Source text: (§2) The compound was then screened against a larger panel of cancer cell lines of diverse histopathologic origin, the NCI-60 screen. […] Mining of publicly available Cancer Genome Atlas (TCGA) expression data identified CHKA amplification and/or mRNA upregulation in 11% of breast, 5–10% of lung, 8% of ovarian, 7% of colorectal and 5% of prostate cancers. Furthermore, CHKA mRNA expression is higher in multiple tumor types compared to normal tissue (Supplementary Figure S1D). The gene was rarely mutated or deleted (0–2.5% mutation rate and < 1% deletion among all tested cancer types). The consistently high expression in a wide variety of tumor types highlights the relevance of CHKA in malignancy and role as a therapeutic target.

[1] = tested on: non-small lung cancer cell lines; experiment: NCI-60 screen; format: cell-based; conditions: Homo sapiens, read-out: median GI50
Source text: as §2

HCT116 cells [2] = experiment: Cell membrane integrity assay (LDH release); format: cell-based, human; conditions: 1–25 μM, 4 h
Experimental: Cell membrane integrity was assessed using a fluorescent kit measuring lactate dehydrogenase (LDH) release (CytoTox-ONETM, Promega) according to manufacturer's instructions.

HCT116 cells [3] = experiment: DNA cell cycle analysis (flow cytometry, propidium iodide); format: cell-based, human
Experimental: Supernatant and cells were harvested, washed and centrifuged. The cell pellet was resuspended it 1 mL ice-cold PBS and the suspension added to 9 mL 70% ethanol, while mixing gently. Cells were fixed for at least 2 hours at −20°C. Cells were centrifuged and rehydrated in 3 mL cold PBS for 15 minutes. Samples were stained in 500 μL buffer containing 100 mM Tris pH 7.4, 150 mM NaCl, 1 mM CaCl2, 0.5 mM MgCl2, 0.1% Triton X-100, 0.1 mg/ml RNase A, 50 μg/ml propidium iodide (all items from Sigma-Aldrich) at 37°C for 3 h protected from light. Data were acquired on a BD FACS Canto flow cytometer (BD Bioscience) and analyzed using FlowJo 7.6.4 software (Tree Star).

Plasma pharmacokinetics = format: in vivo, BALB/c mice; conditions: for AUC / Cmax / half-life: female, BALB/c, mouse, plasma; for half-life: 10 mg/kg
Experimental: Plasma pharmacokinetic parameters of ICL-CCIC-0019 were established in female BALB/c mice aged 6–8 weeks (Harlan). Mice were intraperitoneally (i.p.) or perorally (p.o.) administered a single dose of 10 mg/kg and blood collected by cardiac puncture after 5, 15, 30 minutes and 1, 2, 4, 6 and 24 h. For tissue pharmacokinetic studies, HCT116 xenograft bearing mice were administered 10 mg/kg ICL-CCIC-0019 i.p. and blood collected after 5 minutes, 2, 6 and 24 h. Plasma was obtained by centrifugation at 1000 × g for 10 minutes. Samples were snap-frozen and stored at −80°C prior to analysis. Analysis was carried out by Cyprotex Inc. using liquid chromatography–mass spectrometry (LC–MS). For analysis of plasma metabolites, 2-hour samples of tissue pharmacokinetic studies were pooled.

HCT116 xenografts = experiment: Kinetic modeling of [18F]-D4-FCH PET data; format: in vivo, BALB/c nude mice
Source text: We employed kinetic modeling to further characterize ICL-CCIC-0019-mediated choline kinase inhibition in vivo. Whereas normalized tissue uptake values reflect tracer concentration in a 3-dimensional region of interest, kinetic modeling accounts for tissue uptake relative to plasma. A two-tissue irreversible compartmental model, as previously reported, was employed with the hypothesis that k3 would represent the rate by which the tracer is phosphorylated by choline kinase, (Supplementary Figure S2C). Although this enzymatic reaction is in principle reversible, it was assumed that the high dependency of cancer cells to incorporate choline made it unlikely that catalytic hydrolysis of PCho prevails. Best fits and more physiological parameters were obtained with a 3k (excluding k4) instead of a 4k model. […] In all examined tissues, the blood volume Vb decreased initially after treatment (Supplementary Figure S2D). These perfusion deficits were more pronounced and persistent in tumor compared to liver and kidney. To rule out that these kinetic changes are solely due to choline transport inhibition, we analyzed the choline metabolites of [^18F]-D4-FCH in HCT116 cells treated with ICL-CCIC-0019. As expected for CHKA inhibition, ICL-CCIC-0019 decreased the [^18F]-D4-PCho peak, changing the relative ratio of [^18F]-D4-Cho:[^18F]-D4-PCho from 72:28 in the vehicle control to 87:13 in the treatment group (Supplementary Figure S2E–S2F).
Kinetic analysis of PET data was performed applying a standard two-tissue irreversible compartmental model described in detail elsewhere.

HCT116 cells [4] = experiment: [3H]acetate uptake; format: cell-based, human
Experimental: as §1

HCT116 cells [5] = experiment: TMRE mitochondrial membrane potential assay; format: cell-based, human; conditions: 10 μM, 24 h
Experimental: HCT116 cells were cultured as above with indicated inhibitors and subject to the tetramethylrhodamine ethyl ester dye method (TMRE) membrane potential assay according to the manufacturers instruction (Abcam ab113852) prior to FACS analysis.

HCT116 cells [6] = experiment: Antiproliferative activity (SRB); format: cell-based; conditions: Homo sapiens, HCT-116
Experimental: as §1

[7] = target: recombinant human Δ49N CHKA2 (Homo sapiens, UniProt P35790); conditions: cited from earlier work
recombinant human Δ49N CHKA2, sequence (P35790 50-457 limits assumed, stated change not applied): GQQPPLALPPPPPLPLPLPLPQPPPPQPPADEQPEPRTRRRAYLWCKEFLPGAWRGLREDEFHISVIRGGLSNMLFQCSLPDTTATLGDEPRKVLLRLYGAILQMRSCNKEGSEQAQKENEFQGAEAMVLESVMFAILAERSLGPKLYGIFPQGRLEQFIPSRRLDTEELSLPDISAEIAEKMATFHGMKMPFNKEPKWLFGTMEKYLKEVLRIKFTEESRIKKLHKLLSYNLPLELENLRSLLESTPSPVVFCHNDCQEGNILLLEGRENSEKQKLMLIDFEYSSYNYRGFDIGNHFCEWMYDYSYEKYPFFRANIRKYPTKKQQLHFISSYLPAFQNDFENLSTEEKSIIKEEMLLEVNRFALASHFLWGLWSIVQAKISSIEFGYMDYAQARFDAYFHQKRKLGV

## CN(C)c1cc[n+](CCCCCCCCCCCC[n+]2ccc(N(C)C)cc2)cc1 [ICL-CCIC-0019]
2 normal cell lines
  GI50: 30000 to 120000 nM
8 cancer cell lines; read-out: GI50 range
  GI50: 380 to 2700 nM
8 cancer cell lines; read-out: mean GI50
  GI50: 1090 nM
Breast cancer cell lines
  GI50: 627 nM
[1]
  GI50: 751 nM
HCT116 cells [2]
  LDH concentration in the supernatant: did not elevate LDH concentration
HCT116 cells [3]; 10 μM, 24 h
  increase of cells in G1 phase: 2 fold
HCT116 cells [3]; 48 h
  increase of sub-G1 population: 3.7 fold
Plasma pharmacokinetics; 10 mg/kg p.o.
  oral bioavailability: limited
Plasma pharmacokinetics; ip, 10 mg/kg I.P.
  AUC: 1.32 µM·h
  Cmax: 5300 nM
Plasma pharmacokinetics; ip, 10 mg/kg I.P., read-out: t1/2 (1)
  half-life: 0.0967 h
Plasma pharmacokinetics; ip, 10 mg/kg I.P., read-out: t1/2 (2) (converted)
  half-life: 11 h
Plasma pharmacokinetics; po, 10 mg/kg P.O, read-out: t1/2 (1)
  half-life: 0.167 h
Plasma pharmacokinetics; po, 10 mg/kg P.O, read-out: t1/2 (2) (converted)
  half-life: 56 h
Plasma pharmacokinetics; po, 10 mg/kg P.O
  AUC: 0.05 µM·h
  Cmax: 36 nM
HCT116 xenografts; 24 hours
  decrease of tumor K1 compared to control: 73%
HCT116 xenografts; 48 hours
  decrease of tumor K1 compared to control: 75%
  macro parameter Ki (net irreversible uptake rate) in tumor: significantly decreased
HCT116 cells [4]
  increase of acetate uptake: 10 fold
HCT116 cells [5]
  TMRE-detectable mitochondrial membrane potential: decreased
HCT116 cells [6]
  GI50: 380 nM
[7]
  mode of CHKA inhibition: competitive with choline, but not ATP

From PMC5095062, “The novel choline kinase inhibitor ICL-CCIC-0019 reprograms cellular metabolism and inhibits cancer cell growth” (Oncotarget, 2016)
